# Columns and labels:
# hPXR [1] = test: Liver Cyp3a11 mRNA and protein in hPXR transgenic mice; type: in vivo, mouse; conditions: hPXR humanized transgenic mice, SPA70 200 mg kg−1, RIF 10 mg kg−1, 72 h
# Description: Cells were rinsed once with cold PBS then lysed in RIPA lysis buffer (Thermo Fisher Scientific) containing protease inhibitor (Roche). Mouse liver samples were homogenized in 500 μl of cold RIPA lysis buffer in a Bullet Blender Blue homogenizer (Next Advance, Averill Park, NY). Then, 25 μg of total protein lysates were loaded onto NuPAGE 4%–12% Bis-Tris gels (Invitrogen) with NuPAGE MES SDS running buffer (Invitrogen). The proteins were transferred from the gel to a nitrocellulose membrane by using the iBlot gel-transfer system (Invitrogen). […] The relative intensity of each protein band was then determined by normalizing the intensity of each protein band to that of actin. […]
# The method used for RNA extraction and polymerase chain reaction with reverse transcription (RT-PCR) has been described previously. […] Quantitative RT-PCR was performed in accordance with the manufacturer’s protocol by using TaqMan gene expression assays (Thermo Fisher Scientific) specific for the hPXR and Cyp3a11 genes, with GAPDH or 18s rRNA as the reference gene, in an ABI 7900HT Fast Real-Time PCR System (Thermo Fisher Scientific). […] The comparative threshold (Ct) method was used for the relative quantification of gene expression by the following formulae: ΔCt = Ct (test gene) − Ct (GAPDH); ΔΔCt (test gene) = ΔCt (test gene in treatment group) − ΔCt (test gene in vehicle control group). […]
# hPXR [2] = biological target: T1, hPXR (Homo sapiens, UniProt O75469); test: hPXR transactivation assay using transient transfection in LS180 cells; type: cell-based; design: expressed in transfected cells; conditions: SPA70 10 μM, SJB7 4 μM
# T1 sequence (O75469 1-434): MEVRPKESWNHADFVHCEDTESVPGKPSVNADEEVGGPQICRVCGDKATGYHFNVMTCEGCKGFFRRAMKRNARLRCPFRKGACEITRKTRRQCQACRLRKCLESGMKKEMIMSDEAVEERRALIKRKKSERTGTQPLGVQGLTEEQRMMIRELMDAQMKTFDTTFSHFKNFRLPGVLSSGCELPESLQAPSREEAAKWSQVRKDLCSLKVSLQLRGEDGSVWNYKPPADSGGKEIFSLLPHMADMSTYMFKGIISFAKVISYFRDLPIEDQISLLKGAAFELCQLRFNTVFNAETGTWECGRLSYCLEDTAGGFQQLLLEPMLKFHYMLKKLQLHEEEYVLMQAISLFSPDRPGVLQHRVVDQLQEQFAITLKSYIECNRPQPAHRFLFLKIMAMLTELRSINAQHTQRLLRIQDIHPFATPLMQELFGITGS
# Description: The hPXR transactivation assay using transient transfection (agonist and antagonist modes) were performed as described previously. Briefly, LS180 cells were co-transfected with pGL3-CYP3A4-luc (CYP3A4-luciferase reporter) and pRL-TK (as a transfection control), together with pcDNA3, pcDNA3-hPXR, pcDNA3-hPXRM425A, or pcDNA3-hPXRF429A, by using FuGENE 6 (Roche). The pcDNA3-hPXR mutants (pcDNA3-hPXRM425A and pcDNA3-hPXRF429A) were obtained from Codex BioSolutions, Inc. (Gaithersburg, MD). Mutations were verified through nucleotide sequencing, using primers shown in Supplementary Table 3.
smiles,measurement,setting,value
COc1ccc(OC)c(-n2nnc(S(=O)(=O)c3ccc(C(C)(C)C)cc3)c2C)c1 [SPA70],Effect on rifampicin-induced expression of Cyp3a11 (mRNA and protein),hPXR [1],effectively blocked the rifampicin-induced expression of Cyp3a11
same,Effect on activation of hPXR by SJB7,hPXR [2],effectively block the activation of hPXR

# — publication PMC5622171 (Nature Communications, 2017)
